Laboratory results published in US12318380B2, “Treatment of demyelinating diseases” (priority 2018, dated 2025).
Where a name gives a salt, the structure may show the parent alone. Read-outs that look alike come from different tables or passages of the source.

Legend:
EAE model = conditions: 10 mg/kg starting at the time of immunization; cited from earlier work
EAE-induced weight loss = assay type: in vivo, female C57BL/6 mice; conditions: 0.3, 0.1 or 0.03 mg/kg i.p. daily from day 17
[1] = tested on: infiltrating immune cells (CD45high) in the brain; assay: Immune cell infiltration into the brain in EAE (flow cytometry); assay type: in vivo, female C57BL/6 mice
[2] = tested on: myelin in spinal cord of EAE mice; assay: TEM of spinal cord sections in EAE; assay type: in vivo, female C57BL/6 mice; conditions: 0.03 mg/kg i.p. daily from day 17; day 45
[3] = Weight change in cuprizone model of demyelination; assay type: in vivo, female C57BL/6 mice
[4] = tested on: cuprizone model of demyelination; assay: Rotarod assay in cuprizone model of demyelination; assay type: in vivo, female C57BL/6 mice; conditions: 0.1 mg/kg i.p. daily from week 4
[5] = tested on: myelin in corpus callosum of cuprizone-treated mice; assay: TEM of corpus callosum in cuprizone model (g-ratio, myelinated axons, myelin area); assay type: in vivo, female C57BL/6 mice
[6] = tested on: myelin in spinal cord of EAE mice; assay: Luxol fast blue staining of spinal cord in EAE; assay type: in vivo, female C57BL/6 mice; conditions: chronic phase
[7] = tested on: lymphocyte populations in the spleen; assay: Splenocyte flow cytometry in chronic phase of EAE; assay type: in vivo, female C57BL/6 mice; conditions: 0.01 mg/kg i.p. daily from disease onset; 27 days post treatment initiation
[8] = target: T1, kappa opioid receptor (KOR) (Mus musculus, UniProt P33534); assay: EAE with KOR antagonist norBNI; assay type: in vivo, female C57BL/6 mice
T1 construct: from tissue; host or cells: whole animal: female C57BL/6 mice (EAE model)

[9] = tested on: leucocyte infiltration into the spinal cord; assay: H&E staining of spinal cord for leucocyte infiltration in EAE; assay type: in vivo, female C57BL/6 mice; conditions: 0.01 mg/kg i.p. daily from disease onset; chronic phase
[10] = tested on: activated GFAP+ astrocytes in the spinal cord; assay: GFAP immunohistochemistry of spinal cord in EAE; assay type: in vivo, female C57BL/6 mice; conditions: 0.01 mg/kg i.p. daily from day 17; day 45
[11] = tested on: cuprizone demyelination disease model of MS; assay: von Frey mechanical withdrawal threshold in cuprizone model; assay type: in vivo, female C57BL/6 mice; conditions: 0.1 mg/kg/i.p. daily from day 28 or 35
[12] = tested on: Substance P induced scratch; conditions: cited from earlier work
Morphine induced scratch = conditions: SC; Winfuran assessment report EMA/CHMP/138212/2014; cited from earlier work
[13] = tested on: Histamine induced scratch; conditions: PO; Togashi et al. (2002); cited from earlier work
itch = conditions: in vivo; cited from earlier work
[14] = 0.1 mg/kg/i.p. daily from day 28, day 70
[15] = nalfurafine 0.1 mg/kg/i.p. or U-50488 1.6 mg/kg/i.p. daily from day 28, day 70
[16] = norBNI 10 mg/kg i.p. weekly with nalfurafine 0.01 mg/kg i.p. daily

T1 sequence (P33534 whole entry): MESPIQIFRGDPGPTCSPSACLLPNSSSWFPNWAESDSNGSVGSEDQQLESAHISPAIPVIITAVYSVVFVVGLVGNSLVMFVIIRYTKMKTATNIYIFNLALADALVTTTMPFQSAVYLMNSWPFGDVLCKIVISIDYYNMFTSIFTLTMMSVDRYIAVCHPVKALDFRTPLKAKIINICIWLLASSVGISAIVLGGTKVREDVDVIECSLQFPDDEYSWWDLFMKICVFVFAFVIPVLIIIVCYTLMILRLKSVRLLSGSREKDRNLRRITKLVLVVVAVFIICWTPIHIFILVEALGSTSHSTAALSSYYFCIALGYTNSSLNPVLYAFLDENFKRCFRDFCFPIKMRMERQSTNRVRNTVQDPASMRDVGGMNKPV

Structure (SMILES): CN1CCC[C@@H]1CCO[C@](C)(c1ccccc1)c1ccc(Cl)cc1 [clemastine fumarate]
- chronic disability in the EAE model (EAE model): has been shown to reduce chronic disability in the EAE model

Structure (SMILES): CN(C(=O)/C=C/c1ccoc1)[C@@H]1CC[C@@]2(O)[C@H]3Cc4ccc(O)c5c4[C@@]2(CCN3CC2CC2)[C@H]1O5 [nalfurafine, (E)-N-[(4R,4aS,7R,7aR,12bS)-3-(cyclopropylmethyl)-4a,9-dihydroxy-1,2,4,5,6,7,7a,13-octahydro-4,12-methanobenzofuro[3,2-e]isoquinoline-7-yl]-3-(furan-3-yl)-N-methylprop-2-enamide]
- % change in body weight (EAE-induced weight loss): mice recover from EAE-induced weight loss
- number of infiltrating immune cells in brain (ratio to microglia) ([1]; 0.03 mg/kg i.p. daily from day 17, day 45): significantly reduced the number of infiltrating immune cells
- number of infiltrating immune cells in brain (ratio to microglia) ([1]; 0.03 and 0.01 mg/kg i.p. daily from disease onset, chronic phase (>24 days)): significantly reduced the number of infiltrating immune cells
- myelination of nerve axons in spinal cord (TEM) [2]: nerve axons appear healthy and well-myelinated
- % weight change ([3]; 0.3% cuprizone 5 weeks, 0.1 mg/kg i.p. daily from week 4, 65 days (Example 7)): reversed significantly more effectively by administration of nalfurafine than vehicle alone
- % weight change in recovery phase ([3]; 0.3% cuprizone 35 days, nalfurafine 0.1 mg/kg or U-50488 1.6 mg/kg i.p. daily from day 28 (Example 28)): enhances recovery of the lost weight faster
- rotarod performance at week 9 relative to week 5 [4]: Cuprizone-induced disability was reversed
- myelin in corpus callosum (TEM) ([5]; 0.1 mg/kg i.p. daily from week 4, day 65 (Example 9)): more myelin was detected, and the structure was less disorganized
- area of myelination [5, 14]: percentage increase in area of myelination
- number of myelinated axons [5, 14]: percentage increase in the number of myelinated axons
- axonal-myelin ultrastructure, repair [5, 15]: surprisingly similar to that of the naïve (normal) tissue
- mean g-ratio [5, 15]: 0.75±0.15
- lesion load and myelin density in ventral horn (luxol fast blue) ([6]; 0.01 mg/kg i.p. daily from disease onset): reduces this lesion load and demyelination
- % demyelination of spinal cord (luxol fast blue) ([6]; 0.03 or 0.01 mg/kg i.p. daily from disease onset): significant reduction in the percentage of demyelination
- Teff:cm ratio (effector to central memory CD4 T cells) [7]: reduced ratio in the nalfurafine-treated compared to the vehicle-treated mice
- overall number of CD4 T cells in spleen [7]: the same between nalfurafine and vehicle treated mice
- proportion of major lymphocyte populations in spleen (% live leukocytes) [7]: do not alter the proportion of the major lymphocyte populations in the spleen
- disease reduction in the presence of norBNI ([8]; nalfurafine 0.01 mg/kg i.p. daily with norBNI 10 mg/kg i.p. weekly): effective at reducing disease independently of the KOR
- leucocyte infiltration score (0-3), H&E [9]: surprising reduction of infiltrating leucocytes
- number of activated GFAP+ astrocytes per section [10]: significantly reduces the number of activated astrocytes
- mechanical threshold scores vs vehicle [11]: improved mechanical threshold scores compared to vehicle treated mice
- mechanical withdrawal threshold, pre vs post treatment [11]: reduced to baseline levels
- Complete Inhibition ([12]; IV, Winfuran assessment report EMA/CHMP/138212/2014): 7.5-10^ μg/kg
- Inhibition printed in brackets beside the dose ([12]; PO, 100 μg/kg, Winfuran assessment report EMA/CHMP/138212/2014): 66%
- Complete Inhibition ([12]; PO, Togashi et al. (2002)): 100 µg/kg
- Complete Inhibition ([12]; PO, Winfuran assessment report EMA/CHMP/138212/2014): 100 µg/kg
- Complete Inhibition ([12]; SC, Winfuran assessment report EMA/CHMP/138212/2014): 10 µg/kg
- Complete Inhibition (Morphine induced scratch): 5 to 10 µg/kg
- ED50 [13]: 7.3 µg/kg
- effective dose in humans for itch (itch): 2.5 μg/body/day

Structure (SMILES): Oc1ccc2c3c1O[C@H]1c4[nH]c5c(c4C[C@@]4(O)[C@@H](C2)N(CC2CC2)CC[C@]314)C[C@@]1(O)[C@H]2Cc3ccc(O)c4c3[C@@]1(CCN2CC1CC1)[C@H]5O4 [norBNI]
- disease score, full recovery (score <0.5) [8, 16]: abolishes the ability of nalfurafine to enable full recovery from paralysis
- percentage recovered and number of days in recovery [8, 16]: abolishes the ability of nalfurafine to enable and sustain recovery from paralysis
